Source: patent publication US6479499B1
Values after ≈ are worked out from the molar mass of the structure shown. Read-outs that look alike come from different tables or passages of the source.

Tests used:
[1] = system: P-gp-expressing epidermoid carcinoma of the nasopharynx (KB-VIN); assay: In vitro cytotoxicity, KB-VIN; details: Homo sapiens, KBVIN, 96 h, read-out: ED50 KB-VIN
[2] = system: ileocecal carcinoma (HCT-8); assay: In vitro cytotoxicity, HCT-8; details: Homo sapiens; for IC50: HCT-8, 96 h, read-out: ED50 HCT-8
lung carcinoma (A-549) = assay: In vitro cytotoxicity, A-549; details: Homo sapiens; for IC50: A549, 96 h, read-out: ED50 A-549
[3] = system: ten human tumor cell lines; assay: In vitro cytotoxicity, statements on the panel of tumor cell lines
breast cancer (MCF-7) = assay: In vitro cytotoxicity, MCF-7; details: Homo sapiens; for IC50: MCF7, 96 h, read-out: ED50 MCF-7; for inhibition at 20 µg/mL: MCF7, read-out: Inhibition at highest test concentration (in brackets), MCF-7
bone (HOS) = assay: In vitro cytotoxicity, HOS; details: Homo sapiens; for IC50: 96 h, read-out: ED50 HOS; for inhibition at 20 µg/mL: read-out: Inhibition at highest test concentration (in brackets), HOS
prostate cancer (PC3) = assay: In vitro cytotoxicity, PC3; details: Homo sapiens; for IC50: 96 h, read-out: ED50 PC3; for inhibition at 20 µg/mL: read-out: Inhibition at highest test concentration (in brackets), PC3
[4] = system: epidermoid carcinoma of the nasopharynx (KB); assay: In vitro cytotoxicity, KB; details: Homo sapiens; for IC50: 96 h, read-out: ED50 KB
melanoma (SKMEL-2) = assay: In vitro cytotoxicity, SKMEL-2; details: for IC50 / inhibition at 20 µg/mL: Homo sapiens; for IC50: SK-MEL-2, 96 h, read-out: ED50 SKMEL-2; for inhibition at 20 µg/mL: SK-MEL-2, read-out: Inhibition at highest test concentration (in brackets), SKMEL-2
[5] = system: human ovarian cancer (1A9); assay: In vitro cytotoxicity, 1A9; details: 96 h, read-out: ED50 1A9
glioblastoma (U-87-MG) = assay: In vitro cytotoxicity, U-87-MG; details: Homo sapiens; for IC50: 96 h, read-out: ED50 U-87-MG; for inhibition at 20 µg/mL: read-out: Inhibition at highest test concentration (in brackets), U-87-MG
bovine brain tubulin = assay: Tubulin polymerization assay (antimicrotubule assay); details: read-out: ITP (inhibition of tubulin polymerization) IC50; tubulin […] (12 μM), 26° C., 20 min
[6] = system: platelet aggregation induced by platelet-activating factor (PAF); assay: Antiplatelet assay, PAF-induced aggregation; type: cell-based, rabbit; details: for Percent aggregation, PAF: PAF 2 ng/ml
Protocol: (§1) c. Antiplatelet assay. Blood, collected from the marginal ear vein of rabbits was mixed with EDTA to a final concentration of 6 mM and centrifuged at 90 g for 10 mm at room temperature to obtain platelet-rich plasma. The latter was further centrifuged at 500 g for 10 mm and the platelets were washed with Tyrode's solution without EDTA. After centrifugation at the same conditions, the platelets were suspended in Tyrode's solution with the following compositions (mM): NaCl (136.8), KCl (2.8), NaNCO3(11.9), MgCl2(1.1), NaH2PO4(0.33), CaCl2(1.0), and glucose (11.2). Platelet numbers were determined with a Coulter Counter (Model ZM) and adjusted to 4.5×10^8 platelets/ml.
(§2) Aggregation was measured by the turbidimetric method [O'brien, J. R. J. Clin. Pathol. 1962, 15,452] with a dual-channel Lumi aggregometer (Model 1020, Payton, Canada). All glass ware was siliconized. Test compounds were added one minute before the addition of the aggregation inducer and the platelet suspension was stirred at 900 rpm. The percentage of aggregation was calculated as previously described [Teng, C. M.; Chen, W. Y.; Ko, W. C.; Ouyang, C. Biochem. Biophys. Acta. 1987, 924, 375].

[7] = system: platelet aggregation induced by thrombin; assay: Antiplatelet assay, thrombin-induced aggregation; type: cell-based, rabbit; details: for Percent aggregation, thrombin: thrombin 0.1 U/ml
Protocol: as §1, §2

[8] = system: platelet aggregation induced by collagen; assay: Antiplatelet assay, collagen-induced aggregation; type: cell-based, rabbit
Protocol: as §1, §2

[9] = system: platelet aggregation induced by arachidonic acid (AA); assay: Antiplatelet assay, arachidonic acid-induced aggregation; type: cell-based, rabbit; details: for IC50: Oryctolagus cuniculus, Platelet; for IC50 / Percent aggregation, AA: AA 100 μM
Protocol: as §1, §2

COc1cccc(C2NC(=O)c3ccccc3N2)c1 (racemic) [Compound 61, 2,3-Dihydro-2-(3′-methoxyphenyl)-4-quinazolinone]
IC50 [1]: 1.2 µg/mL (≈ 4.72 µM)
IC50 [2]: 1.5 µg/mL (≈ 5.9 µM)
IC50 (lung carcinoma (A-549)): 3 µg/mL (≈ 11.8 µM)
Times more active than 2′-methoxy (60) ([3]; more sensitive cell lines): about 15 times
Times more active than 4′-methoxy (62) ([3]; more sensitive cell lines): ~20 times
IC50 (breast cancer (MCF-7)): > 20 µg/mL
inhibition at 20 µg/mL (breast cancer (MCF-7)): 48%
IC50 (bone (HOS)): > 20 µg/mL
inhibition at 20 µg/mL (bone (HOS)): 42%
IC50 (prostate cancer (PC3)): > 20 µg/mL
inhibition at 20 µg/mL (prostate cancer (PC3)): 43%
IC50 [4]: 3 µg/mL (≈ 11.8 µM)
IC50 (melanoma (SKMEL-2)): > 20 µg/mL
inhibition at 20 µg/mL (melanoma (SKMEL-2)): 49%
IC50 [5]: 1 µg/mL (≈ 3.93 µM)
IC50 (glioblastoma (U-87-MG)): > 20 µg/mL
inhibition at 20 µg/mL (glioblastoma (U-87-MG)): 35%
IC50 (bovine brain tubulin): 5.6 ± 1 µM

COc1ccc(OC)c(C2NC(=O)c3ccccc3N2)c1 (racemic) [Compound 65, 2,3-Dihydro-2-(2′,5′-dimethoxyphenyl)-4-quinazolinone]
IC50 [1]: 8.4 µg/mL (≈ 29.5 µM)
IC50 [2]: > 20 µg/mL
inhibition at 20 µg/mL ([2]; HCT-8, read-out: Inhibition at highest test concentration (in brackets), HCT-8): 32%
IC50 (lung carcinoma (A-549)): > 20 µg/mL
inhibition at 20 µg/mL (lung carcinoma (A-549); A549, read-out: Inhibition at highest test concentration (in brackets), A-549): 42%
IC50 (breast cancer (MCF-7)): > 20 µg/mL
inhibition at 20 µg/mL (breast cancer (MCF-7)): 42%
IC50 (bone (HOS)): > 20 µg/mL
inhibition at 20 µg/mL (bone (HOS)): 40%
IC50 (prostate cancer (PC3)): > 20 µg/mL
inhibition at 20 µg/mL (prostate cancer (PC3)): 22%
IC50 [4]: > 20 µg/mL
inhibition at 20 µg/mL ([4]; read-out: Inhibition at highest test concentration (in brackets), KB): 40%
IC50 (melanoma (SKMEL-2)): > 20 µg/mL
inhibition at 20 µg/mL (melanoma (SKMEL-2)): 44%
IC50 [5]: 10 µg/mL (≈ 35.2 µM)
IC50 (glioblastoma (U-87-MG)): > 20 µg/mL
inhibition at 20 µg/mL (glioblastoma (U-87-MG)): 5%
IC50 (bovine brain tubulin): 32 ± 4 µM

COc1cc(OC)cc(C2NC(=O)c3ccccc3N2)c1 (racemic) [Compound 67, 2,3-Dihydro-2-(3′,5′-dimethoxyphenyl)-4-quinazolinone]
IC50 [1]: 1.6 µg/mL (≈ 5.63 µM)
IC50 [2]: 3 µg/mL (≈ 10.6 µM)
IC50 (lung carcinoma (A-549)): 5 µg/mL (≈ 17.6 µM)
IC50 (breast cancer (MCF-7)): > 20 µg/mL
inhibition at 20 µg/mL (breast cancer (MCF-7)): 49%
IC50 (bone (HOS)): > 20 µg/mL
inhibition at 20 µg/mL (bone (HOS)): 41%
IC50 (prostate cancer (PC3)): > 20 µg/mL
inhibition at 20 µg/mL (prostate cancer (PC3)): 44%
IC50 [4]: 4.7 µg/mL (≈ 16.5 µM)
IC50 (melanoma (SKMEL-2)): 4.4 µg/mL (≈ 15.5 µM)
IC50 [5]: 1.92 µg/mL (≈ 6.75 µM)
IC50 (glioblastoma (U-87-MG)): > 20 µg/mL
inhibition at 20 µg/mL (glioblastoma (U-87-MG)): 37%
IC50 (bovine brain tubulin): 12 ± 3 µM

COc1cccc(C2NC(=O)c3cc(Cl)ccc3N2)c1 (racemic) [Compound 68, 2,3-Dihydro-2-(3′-methoxyphenyl)-6-chloro-4-quinazolinone]
IC50 [1]: 0.42 µg/mL (≈ 1.45 µM)
IC50 [2]: 0.48 µg/mL (≈ 1.66 µM)
IC50 (lung carcinoma (A-549)): 0.6 µg/mL (≈ 2.08 µM)
ED50, times less than that of 61 [3]: about 5 times
IC50 (breast cancer (MCF-7)): 16 µg/mL (≈ 55.4 µM)
IC50 (bone (HOS)): 20 µg/mL (≈ 69.3 µM)
IC50 (prostate cancer (PC3)): 2.5 µg/mL (≈ 8.66 µM)
IC50 [4]: 0.95 µg/mL (≈ 3.29 µM)
IC50 (melanoma (SKMEL-2)): < 2.5 µg/mL
Inhibition value of plateau-dose response (in brackets), SKMEL-2 (melanoma (SKMEL-2); plateau-dose response, inhibition plateaus over broad dose range): 56%
IC50 [5]: 0.27 µg/mL (≈ 0.935 µM)
IC50 (glioblastoma (U-87-MG)): > 20 µg/mL
inhibition at 20 µg/mL (glioblastoma (U-87-MG)): 37%
IC50 (bovine brain tubulin): 1.5 ± 0.01 µM

CCOc1nc(-c2ccccc2)nc2ccccc12 [Compound 70, 4-Ethoxy-2-phenylquinazoline]
Inhibition of PAF-induced platelet aggregation in words ([6]; Table 5): poor inhibitors
Percent aggregation, PAF ([6]; compound 20 μg/ml): 88.8 ± 1.0(4) %
Percent aggregation, PAF ([6]; compound 50 μg/ml): 19.8 ± 7.0(4) %
Percent aggregation, PAF ([6]; compound 100 μg/ml): 2.1 ± 1.8(4) %
Inhibition of thrombin-induced platelet aggregation in words ([7]; Table 5): poor inhibitors
Percent aggregation, thrombin ([7]; compound 20 μg/ml): 91.5 ± 1.2(4) %
Percent aggregation, thrombin ([7]; compound 50 μg/ml): 75.1 ± 7.3(4) %
Percent aggregation, thrombin ([7]; compound 100 μg/ml, 37° C., 1 min preincubation): 11.7 ± 6.5(4) %
IC50 ([8]; Oryctolagus cuniculus, Platelet, collagen 10 μg/ml, read-out: IC50, collagen-induced platelet aggregation (Table 5)): 9.2 µM
Inhibition of collagen-induced platelet aggregation in words ([8]; Table 5): relatively stronger inhibitors
Percent aggregation, collagen ([8]; compound 0.1 μg/ml, collagen 10 μg/ml): 86.4 ± 2.9(4) %
Percent aggregation, collagen ([8]; compound 0.2 μg/ml, collagen 10 μg/ml): 78.5 ± 4.7(4) %
Percent aggregation, collagen ([8]; compound 0.5 μg/ml, collagen 10 μg/ml): 63.9 ± 7.4(4) %
Percent aggregation, collagen ([8]; compound 1 μg/ml, collagen 10 μg/ml): 47.1 ± 6.6(4) %
Percent aggregation, collagen ([8]; compound 2 μg/ml, collagen 10 μg/ml): 35.0 ± 10.3(4) %
Percent aggregation, collagen ([8]; compound 5 μg/ml, collagen 10 μg/ml): 30.1 ± 9.0(4) %
Percent aggregation, collagen ([8]; compound 10 μg/ml, collagen 10 μg/ml): 19.3 ± 9.8(4) %
Percent aggregation, collagen ([8]; compound 20 μg/ml, collagen 10 μg/ml): 10.3 ± 6.0(4) %
Percent aggregation, collagen ([8]; compound 50 μg/ml, collagen 10 μg/ml): 0.0 ± 0.0(4) %
Percent aggregation, collagen ([8]; compound 100 μg/ml, collagen 10 μg/ml): 0.0 ± 0.0(4) %
IC50 ([9]; 37° C., 1 min preincubation, read-out: IC50, platelet aggregation induced by arachidonic acid (in vitro) (Table 6)): 1.6 µM
IC50 ([9]; read-out: IC50, AA-induced platelet aggregation (Table 5)): 1.6 µM
Inhibition of AA-induced platelet aggregation in words ([9]; Table 5): relatively stronger inhibitors
Percent aggregation, AA ([9]; compound 0.1 μg/ml): 85.5 ± 2.0(5) %
Percent aggregation, AA ([9]; compound 0.2 μg/ml): 76.9 ± 5.4(5) %
Percent aggregation, AA ([9]; compound 0.5 μg/ml): 33.8 ± 13.4(5) %
Percent aggregation, AA ([9]; compound 1 μg/ml): 0.0 ± 0.0(5) %
Percent aggregation, AA ([9]; compound 100 μg/ml): 0.0 ± 0.0(5) %
